Experiments:
human TLR8 = biological target: T1, human TLR8 (Homo sapiens, UniProt Q9NR97); assay: TLR8 inhibition reporter assay (HEK-Blue cells, SEAP reporter); assay type: cell-based; settings: HEK-Blue cells overexpressing human TLR8, stimulated with R848 15.9 μM, 22 hour incubation
T1 construct: host or cells: HEK-Blue cells
T1 sequence (Q9NR97 27-1041): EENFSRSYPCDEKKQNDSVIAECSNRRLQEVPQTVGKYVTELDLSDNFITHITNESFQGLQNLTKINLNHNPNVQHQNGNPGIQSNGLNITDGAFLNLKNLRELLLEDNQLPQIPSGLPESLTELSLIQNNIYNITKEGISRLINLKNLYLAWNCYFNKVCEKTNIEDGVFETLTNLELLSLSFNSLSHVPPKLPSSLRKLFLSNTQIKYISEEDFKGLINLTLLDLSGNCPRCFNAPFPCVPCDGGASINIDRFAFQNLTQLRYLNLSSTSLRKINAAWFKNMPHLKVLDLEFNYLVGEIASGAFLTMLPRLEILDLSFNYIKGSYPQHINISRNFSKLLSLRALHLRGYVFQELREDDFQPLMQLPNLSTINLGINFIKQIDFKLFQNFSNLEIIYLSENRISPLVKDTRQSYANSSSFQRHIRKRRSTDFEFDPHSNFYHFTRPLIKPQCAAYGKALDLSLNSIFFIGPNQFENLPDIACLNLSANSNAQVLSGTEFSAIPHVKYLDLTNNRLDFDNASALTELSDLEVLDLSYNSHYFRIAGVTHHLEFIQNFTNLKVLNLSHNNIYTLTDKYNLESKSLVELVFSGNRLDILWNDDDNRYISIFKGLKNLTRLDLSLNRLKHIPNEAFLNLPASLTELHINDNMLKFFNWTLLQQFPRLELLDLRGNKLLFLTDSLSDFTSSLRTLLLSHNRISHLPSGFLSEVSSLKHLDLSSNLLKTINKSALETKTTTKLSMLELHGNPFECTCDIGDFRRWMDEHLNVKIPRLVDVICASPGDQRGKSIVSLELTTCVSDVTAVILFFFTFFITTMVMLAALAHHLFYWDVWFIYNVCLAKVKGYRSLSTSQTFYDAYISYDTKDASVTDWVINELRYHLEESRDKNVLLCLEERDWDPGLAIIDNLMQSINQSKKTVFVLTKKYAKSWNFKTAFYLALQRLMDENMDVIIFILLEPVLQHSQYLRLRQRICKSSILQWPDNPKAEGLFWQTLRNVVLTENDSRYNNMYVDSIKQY
Description: TLR7/8/9 Inhibition Reporter Assays
HEK-Blue™-cells (Invivogen) overexpressing human TLR7, TLR8 or TLR9 receptors were used for screening inhibitors of these receptors using an inducible SEAP (secreted embryonic alkaline phosphatase) reporter gene under the control of the IFN-β minimal promoter fused to five NF-κB and AP-1-binding sites. Briefly, cells are seeded into Greiner 384 well plates (15000 cells per well for TLR7, 20,000 for TLR8 and 25,000 for TLR9) and then treated with test compounds in DMSO to yield a final dose response concentration range of 0.05 nM-50 μM. After a 30 minute compound pre-treatment at room temperature, the cells are then stimulated with a TLR7 ligand (gardiquimod at a final concentration of 7.5 μM), TLR8 ligand (R848 at a final concentration of 15.9 μM) or TLR9 ligand (ODN2006 at a final concentration of 5 nM) to activate NF-κB and AP-1 which induce the production of SEAP. After a 22 hour incubation at 37° C., 5% CO2, SEAP levels are determined with the addition of HEK-Blue™ Detection reagent (Invivogen), a cell culture medium that allows for detection of SEAP, according to manufacturer's specifications. The percent inhibition is determined as the % reduction in the HEK-Blue signal present in wells treated with agonist plus DMSO alone compared to wells treated with a known inhibitor.

human TLR9 = biological target: T2, human TLR9 (Homo sapiens, UniProt Q9NR96); assay: TLR9 inhibition reporter assay (HEK-Blue cells, SEAP reporter); assay type: cell-based; settings: HEK-Blue cells overexpressing human TLR9, stimulated with ODN2006 5 nM, 22 hour incubation
T2 construct: host or cells: HEK-Blue cells
T2 sequence (Q9NR96 26-1032): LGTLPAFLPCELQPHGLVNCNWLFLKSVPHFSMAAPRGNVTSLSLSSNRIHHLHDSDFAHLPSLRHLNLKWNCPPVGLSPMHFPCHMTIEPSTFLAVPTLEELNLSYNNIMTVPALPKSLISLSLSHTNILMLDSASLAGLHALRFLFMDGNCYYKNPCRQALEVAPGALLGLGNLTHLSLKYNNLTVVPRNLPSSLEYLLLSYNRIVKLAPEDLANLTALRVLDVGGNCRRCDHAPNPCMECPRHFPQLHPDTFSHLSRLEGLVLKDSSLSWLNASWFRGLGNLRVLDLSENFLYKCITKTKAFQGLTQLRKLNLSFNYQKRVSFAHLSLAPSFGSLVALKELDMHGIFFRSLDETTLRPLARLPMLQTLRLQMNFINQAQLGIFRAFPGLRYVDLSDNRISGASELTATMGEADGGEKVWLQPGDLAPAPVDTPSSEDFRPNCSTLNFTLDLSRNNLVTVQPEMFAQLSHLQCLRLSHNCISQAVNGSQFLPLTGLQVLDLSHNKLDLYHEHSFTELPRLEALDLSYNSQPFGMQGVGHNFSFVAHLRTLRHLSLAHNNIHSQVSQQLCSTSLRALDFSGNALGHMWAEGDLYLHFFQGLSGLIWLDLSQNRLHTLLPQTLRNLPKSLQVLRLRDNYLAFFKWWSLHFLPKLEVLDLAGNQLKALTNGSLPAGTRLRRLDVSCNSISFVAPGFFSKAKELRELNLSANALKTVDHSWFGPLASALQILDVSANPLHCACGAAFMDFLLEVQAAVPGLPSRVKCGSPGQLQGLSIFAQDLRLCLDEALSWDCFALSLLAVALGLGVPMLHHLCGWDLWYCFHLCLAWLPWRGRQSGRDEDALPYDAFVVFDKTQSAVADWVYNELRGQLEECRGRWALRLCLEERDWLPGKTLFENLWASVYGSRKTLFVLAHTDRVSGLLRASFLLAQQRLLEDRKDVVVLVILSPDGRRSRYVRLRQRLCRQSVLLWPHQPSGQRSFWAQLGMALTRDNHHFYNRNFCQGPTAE
How it was run: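 HEK-Blue cells overexpressing human TLR9 (25,000 cells/well), NF-κB/AP-1-driven SEAP reporter. Compounds at 0.05 nM–50 μM final, 22 h at 37 °C, 5% CO2 with agonist. SEAP detected with HEK-Blue Detection medium; % inhibition versus agonist plus DMSO and known-inhibitor wells.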

Structure (SMILES)	IC50 (human TLR8) [nM]	IC50 (human TLR9) [nM]
COc1ccc(-c2[nH]c3cnc(-c4ccc(N5CCN(C(C)C)CC5)cc4)cc3c2C)cc1OC [Example 1, 2-(3,4-Dimethoxyphenyl)-5-(4-(4-isopropylpiperazin-1-yl)phenyl)-3-methyl-1H-pyrrolo[2,3-c]pyridine]	21000	161
COc1ccc(-c2c(C)[nH]c3cnc(-c4ccc(N5CCN(C(C)C)CC5)cc4)cc23)cc1OC [Example 2, 3-(3,4-dimethoxyphenyl)-5-(4-(4-isopropylpiperazin-1-yl)phenyl)-2-methyl-1H-pyrrolo[2,3-c]pyridine]	29000	157
COc1ccc(-c2c(C)n(C)c3cnc(-c4ccc(N5CCN(CC(C)(C)O)CC5)cc4)cc23)cc1OC [Example 3, 1-(4-(4-(3-(3,4-Dimethoxyphenyl)-1,2-dimethyl-1H-pyrrolo[2,3-c]pyridin-5-yl)phenyl)piperazin-1-yl)-2-methylpropan-2-ol]	37700	82
COc1ccc(-c2c(C)[nH]c3cnc(C4CCN(C5CCN(C(=O)OCc6ccccc6)CC5)CC4)cc23)cc1OC [Example 4, Benzyl 4-(3-(3,4-dimethoxyphenyl)-2-methyl-1H-pyrrolo[2,3-c]pyridin-5-yl)-[1,4′-bipiperidine]-1′-carboxylate]	23500	243
COc1ccc(-c2c(C)[nH]c3cnc(C4CCN(C(=O)C5CCN(C6CC6)CC5)CC4)cc23)cc1OC [Example 5, (1-Cyclopropylpiperidin-4-yl)(4-(3-(3,4-dimethoxyphenyl)-2-methyl-1H-pyrrolo[2,3-c]pyridin-5-yl)piperidin-1-yl)methanone]	> 50000	133
COc1ccc(-c2c(C)[nH]c3cnc(C4CCN(c5cc(C)nc(C)c5)CC4)cc23)cc1OC [Example 6, 3-(3,4-Dimethoxyphenyl)-5-(1-(2,6-dimethylpyridin-4-yl)piperidin-4-yl)-2-methyl-1H-pyrrolo[2,3-c]pyridine]	23300	296
COc1ccc(-c2cc3cnc(-c4ccc(N5CCN(CC6CC6)CC5)cc4)cc3n2C)cc1OC [Example 9, 6-(4-(4-(Cyclopropylmethyl)piperazin-1-yl)phenyl)-2-(3,4-dimethoxyphenyl)-1-methyl-1H-pyrrolo[3,2-c]pyridine]	1500	21
COc1ccc(-c2cc3cnc(-c4ccc(N5CCN(C6CCC6)CC5)cc4)cc3n2C)cc1OC [Example 10, 6-(4-(4-Cyclobutylpiperazin-1-yl)phenyl)-2-(3,4-dimethoxyphenyl)-1-methyl-1H-pyrrolo[3,2-c]pyridine]	5200	66
COc1ccc(-c2c(C)c3cc(C4CCN(C5CCN(CC(C)C)CC5)CC4)ncc3n2C)cc1OC [Example 13, 2-(3,4-dimethoxyphenyl)-5-(1′-isobutyl-[1,4′-bipiperidin]-4-yl)-1,3-dimethyl-1H-pyrrolo[2,3-c]pyridine]	> 50000	191
COc1ccc(-c2c(C)[nH]c3cnc(C4CCN(C5CCN(C(=O)c6ccccc6)CC5)CC4)cc23)cc1OC [Example 14, (4-(3-(3,4-dimethoxyphenyl)-2-methyl-1H-pyrrolo[2,3-c]pyridin-5-yl)-[1,4′-bipiperidin]-1′-yl) (phenyl)methanone]	> 50000	313
COc1ccc(-c2c(C)[nH]c3cnc(C4CCN(C5CCN(C(=O)C(C)C)CC5)CC4)cc23)cc1OC [Example 15, 1-(4-(3-(3,4-dimethoxyphenyl)-2-methyl-1H-pyrrolo[2,3-c]pyridin-5-yl)-[1,4′-bipiperidin]-1′-yl)-2-methylpropan-1-one]	> 50000	39
COc1ccc(-c2c(C)[nH]c3cnc(C4CCN(C(=O)CN5CCCCC5)CC4)cc23)cc1OC [Example 16, 1-(4-(3-(3,4-dimethoxyphenyl)-2-methyl-1H-pyrrolo[2,3-c]pyridin-5-yl)piperidin-1-yl)-2-(piperidin-1-yl)ethan-1-one]	47900	84
COc1ccc(-c2c(C)n(C)c3cnc(C4CCN(C5CCN(CC(C)C)CC5)CC4)cc23)cc1OC [Example 17, 3-(3,4-dimethoxyphenyl)-5-(1′-isobutyl-[1,4′-bipiperidin]-4-yl)-1,2-dimethyl-1H-pyrrolo[2,3-c]pyridine]	> 50000	19
COc1ccc(-c2c(C)n(C)c3cnc(C4CCN(C5CCN(C(=O)C(C)C)CC5)CC4)cc23)cc1OC [Example 18, 1-(4-(3-(3,4-dimethoxyphenyl)-1,2-dimethyl-1H-pyrrolo[2,3-c]pyridin-5-yl)-[1,4′-bipiperidin]-1′-yl)-2-methylpropan-1-one]	> 50000	194
COc1ccc(-c2c(C)n(C)c3cnc(C4CCN(C5CCN(C(=O)c6ccccc6)CC5)CC4)cc23)cc1OC [Example 19, (4-(3-(3,4-dimethoxyphenyl)-1,2-dimethyl-1H-pyrrolo[2,3-c]pyridin-5-yl)-[1,4′-bipiperidin]-1′-yl)(phenyl)methanone]	> 50000	130
CCOC(=O)N1CCC(N2CCC(c3cc4c(-c5ccc(OC)c(OC)c5)c(C)n(C)c4cn3)CC2)CC1 [Example 20, ethyl 4-(3-(3,4-dimethoxyphenyl)-1,2-dimethyl-1H-pyrrolo[2,3-c]pyridin-5-yl)-[1,4′-bipiperidine]-1′-carboxylate]	> 50000	153
COc1ccc(-c2c(C)[nH]c3cnc(C4CCN(C(=O)CN5CCCC5)CC4)cc23)cc1OC [Example 21, 1-(4-(3-(3,4-dimethoxyphenyl)-2-methyl-1H-pyrrolo[2,3-c]pyridin-5-yl)piperidin-1-yl)-2-(pyrrolidin-1-yl)ethan-1-one]	> 50000	603

Reference: US12590091B2, “1H-pyrrolo[3,2-C]pyridine and 1H-pyrrolo[2,3-C]pyridine derivatives as TLR9 inhibitors for the treatment of fibrosis” (BRISTOL-MYERS SQUIBB COMPANY, priority 2020, dated 2026)
